Results published in patent publication US8466160B2, “Identification of non-small cell lung carcinoma (NSCLC) tumors expressing PDGFR-alpha” (priority 2005, dated 2013).
Structures can show the parent of a compound that is named as a salt.

What was measured:
H1703 cell line = experiment: MTT cell proliferation assay, H1703; assay type: cell-based, human; conditions: concentrations similar to K562 (0.1 μM)
A549 cell line [1] = experiment: MTT cell proliferation assay, A549; assay type: cell-based, human
H1373 cell line = experiment: MTT cell proliferation assay, H1373; assay type: cell-based, human
K562 cell line = experiment: MTT cell proliferation assay, K562; assay type: cell-based
AKT phosphorylation [2] = experiment: Western blot of AKT phosphorylation in H1703 cells; assay type: cell-based, human
Experimental: (§1) Phosphorylation of the EGFR receptor, ERK and AKT were determined while total PDGFRα and ERK1/2 are included as loading controls. […] AKT is thought to be the primary driver of cell survival (see Franke, Cell 88: 435-437 (1997)).

PDGFRα phosphorylation [3] = experiment: Western blot of PDGFRα phosphorylation in H1703 cells; assay type: cell-based, human; conditions: dose response, FIG. 9(b)
[4] = test system: PDGFRα-expressing human NSCLC tumors (H1703) xenografts; experiment: Tumor size in mouse xenografts of PDGFRα-expressing human NSCLC tumors; assay type: in vivo, mice
Experimental: This hypothesis was tested using mouse xenografts derived from the H1703 cell line.
(§2) In this model, human cell lines are injected into immune-compromised mice forming xenograft tumors that resemble human tumors including vascularization and other features found in human tumors. The mice are then administered the drug in the same manner as in human patients. Tumor size may be monitored visually during drug treatment and the tumors may be removed, fixed and analyzed by standard IHC procedures or lysed and analyzed by Western blot.

PDGFRα phosphorylation [5] = experiment: Western blot / IHC of PDGFRα phosphorylation in xenograft tumors; assay type: in vivo, mice
Experimental: as §2

AKT phosphorylation [6] = experiment: IHC of AKT phosphorylation in xenograft tumors; assay type: in vivo, mice; conditions: treated vs control tumors, FIG. 11
Experimental: as §2

A549 cell line [7] = conditions: Mol. Cancer 2003, not reproduced by the inventors; cited from earlier work
ERK phosphorylation = experiment: Western blot of ERK phosphorylation in H1703 cells; assay type: cell-based, human; conditions: FIG. 9(a)
Experimental: as §1

Compound: Cc1ccc(NC(=O)c2ccc(CN3CCN(C)CC3)cc2)cc1Nc1nccc(-c2cccnc2)n1 [Gleevec®, Imatinib mesylate]
- sensitivity of cell growth to Gleevec (MTT) (H1703 cell line): sensitive
- concentration up to which cell growth was not affected (MTT) (A549 cell line [1]): > 10 µM
- sensitivity of cell growth to Gleevec (MTT) (H1373 cell line): insensitive
- concentration at which cell line is sensitive (MTT) (K562 cell line): 0.1 µM
- effect on AKT phosphorylation (AKT phosphorylation [2]; Western blot, FIG. 9(a)): loss of AKT phosphorylation
- dose that greatly inhibits AKT phosphorylation (AKT phosphorylation [2]; dose response, FIG. 9(b)): 0.1 µM
- lowest dose that inhibits PDGFRα phosphorylation (PDGFRα phosphorylation [3]): 0.01 µM
- average tumor diameter in treated mice ([4]; 3 treated mice, control approximately 190 mm): approximately 20 mm
- effect on tumor size ([4]; xenograft, FIG. 10(a)): significant decrease in tumor size
- effect on PDGFRα phosphorylation in xenograft tumors (IHC) (PDGFRα phosphorylation [5]; treated vs control tumors, FIG. 11): decrease
- effect on PDGFRα phosphorylation in xenografts (Western blot) (PDGFRα phosphorylation [5]; tumor lysate, 4 treated mice vs one control): inhibiting PDGFRα phosphorylation
- effect on AKT phosphorylation in xenograft tumors (IHC) (AKT phosphorylation [6]): decrease
- growth of A549 cell line as reported by Zhang et al. (A549 cell line [7]): growth inhibition

Compound: COc1cc2ncnc(Nc3ccc(F)c(Cl)c3)c2cc1OCCCN1CCOCC1 [Iressa™]
- effect on ERK phosphorylation (ERK phosphorylation): decreases
